From patent US8163779B2, “Glucokinase activators” (Takeda San Diego, Inc., priority 2006, dated 2012) come the findings set out here.

Molecules are shown by their SMILES.

This experiment deals with T1, glucokinase (GK) (Homo sapiens, UniProt P35557).
T1 construct: I.D. No. 1 corresponds to residues 12-465 of glucokinase; made in house; host or cells: E. coli DH10b-T1r
T1 sequence (P35557 with tags, fused parts or gaps isoform P35557-2): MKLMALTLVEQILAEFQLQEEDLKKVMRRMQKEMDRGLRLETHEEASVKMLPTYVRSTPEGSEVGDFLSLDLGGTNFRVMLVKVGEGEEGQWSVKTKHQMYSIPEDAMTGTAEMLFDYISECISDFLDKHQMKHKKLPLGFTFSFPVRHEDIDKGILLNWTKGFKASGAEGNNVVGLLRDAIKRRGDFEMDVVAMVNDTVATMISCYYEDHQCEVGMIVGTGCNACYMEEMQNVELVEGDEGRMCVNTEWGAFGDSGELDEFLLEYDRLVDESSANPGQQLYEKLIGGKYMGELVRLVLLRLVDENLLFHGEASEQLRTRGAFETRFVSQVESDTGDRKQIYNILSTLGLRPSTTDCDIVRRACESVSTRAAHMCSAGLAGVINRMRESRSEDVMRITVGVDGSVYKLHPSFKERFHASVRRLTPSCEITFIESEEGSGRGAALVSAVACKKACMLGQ
Kind of experiment: enzymatic glucokinase activity assay (ATP consumption, KinaseGlo luminescence). Format: biochemical. As to conditions: recombinant GK residues 12-465; 5 μM ATP, 5 mM Glucose; Kact = concentration that displays 50% of the maximal increase in GK activity; read-out: pKact. From the text:
The activity of compounds as glucokinase activators may be assayed in vitro, in vivo or in a cell line. Provided below is an enzymatic glucokinase activity assay.
Purified glucokinase may be obtained as follows. […] SEQ.
The expression of recombinant glucokinase protein may be carried out by transformation and growth of DH10b-T1r E. coli cells incorporating the (pFLAG-CTC) plasmid in LB media. Protein expression can be induced in this system by the addition of IPTG to the culture medium.
Recombinant protein may be isolated from cellular extracts by passage over Sepharose Q Fast Flow resin (Pharmacia). This partially purified GK extract may then be further purified by a second passage over Poros HQ 10 (Applied Biosystems). The purity of GK may be determined on denaturing SDS-PAGE gel. Purified GK may then be concentrated to a final concentration of 20.0 mg/ml. After flash freezing in liquid nitrogen, the proteins can be stored at −78° C. in a buffer containing 25 mM TRIS-HCl pH 7.6, 50 mM NaCl, and 0.5 mM TCEP.
The activation properties of compounds for GK may be determined using a black 384-well-plate format under the following reaction conditions: 25 mM Hepes pH 7.2, 25 mM NaCl, 10 mM MgCl2, 0.01% Brij35, 1 mM DTT, 5 μM ATP, 5 mM Glucose 2% DMSO. The amount of ATP consumed may be determined quantitatively by addition of equal volume of luciferase reagent (luciferase+beetle luciferin—KinaseGlo Luminescent Kinase Assay kit from Promega). The luminescence intensity may be measured by using the Analyst HT from LJL Biosystems.
The reaction mixture may then be incubated at room temperature for 60 min, and quenched and developed by addition of 10 μL of luciferase reagent. Luminescence intensities of the resulting reaction mixtures may be measured after a 10 min incubation at room temperature. The luminescence intensity may be measured by using the Analyst HT from LJL Biosystems.
pKact values may be calculated by non-linear curve fitting of the compound concentrations and luminescence intensities to a standard inhibition/activation equation.
For `O=C(Nc1ncc(F)s1)C(CC1CCOCC1)n1ccc(S(=O)(=O)c2ccccn2)cc1=O` (centres unmarked) [Example 50, N-(5-fluorothiazol-2-yl)-2-(2-oxo-4-(pyridin-2-ylsulfonyl)pyridin-1(2H)-yl)-3-(tetrahydro-2H-pyran-4-yl)propanamide], the EC50 is < 1.58 µM. Turning to `O=C(Nc1nc2cccnc2s1)[C@@H](CC1CCOCC1)n1ccc(S(=O)(=O)C2CC2)cc1=O` [Example 51, (R)-2-(4-(cyclopropylsulfonyl)-2-oxopyridin-1(2H)-yl)-3-(tetrahydro-2H-pyran-4-yl)-N-(thiazolo[5,4-b]pyridin-2-yl)propanamide], the EC50 is > 15.8 µM. In the case of `O=C(Nc1nc2cccnc2s1)[C@H](CC1CCOCC1)n1ccc(S(=O)(=O)C2CC2)cc1=O` [Example 52, (S)-2-(4-(cyclopropylsulfonyl)-2-oxopyridin-1(2H)-yl)-3-(tetrahydro-2H-pyran-4-yl)-N-(thiazolo[5,4-b]pyridin-2-yl)propanamide] it was 1.58 to 15.8 µM. To `CS(=O)(=O)c1ccn(C(CC2CCOCC2)C(=O)Nc2ncc(CCC(=O)O)s2)c(=O)c1` (centres unmarked) [Example 53, 3-(2-(2-(4-(methylsulfonyl)-2-oxopyridin-1(2H)-yl)-3-(tetrahydro-2H-pyran-4-yl)propanamido)thiazol-5-yl)propanoic acid] belongs > 15.8 µM; to `Cc1occc1S(=O)(=O)c1cc(C)n(C(CC2CCCCC2)C(=O)Nc2ncc(Cl)s2)c(=O)c1` (centres unmarked) [Example 54, N-(5-chlorothiazol-2-yl)-3-cyclohexyl-2-(6-methyl-4-(2-methylfuran-3-ylsulfonyl)-2-oxopyridin-1(2H)-yl)propanamide], < 1.58 µM; to `Cc1cnc(NC(=O)C(CC2CCOCC2)n2ccc(OCc3ccccc3)cc2=O)s1` (centres unmarked) [Example 55, 2-(4-(benzyloxy)-2-oxopyridin-1(2H)-yl)-N-(5-methylthiazol-2-yl)-3-(tetrahydro-2H-pyran-4-yl)propanamide], 1.58 to 15.8 µM. `N#Cc1cnc(NC(=O)[C@@H](CC2CCOCC2)n2ccc(S(=O)(=O)C3CCCC3)cc2=O)s1` [Example 56, (R)-N-(5-cyanothiazol-2-yl)-2-(4-(cyclopentylsulfonyl)-2-oxopyridin-1(2H)-yl)-3-(tetrahydro-2H-pyran-4-yl)propanamide]: the EC50 is > 15.8 µM.

As for `N#Cc1cnc(NC(=O)[C@H](CC2CCOCC2)n2ccc(S(=O)(=O)C3CCCC3)cc2=O)s1` [Example 57, (S)-N-(5-cyanothiazol-2-yl)-2-(4-(cyclopentylsulfonyl)-2-oxopyridin-1(2H)-yl)-3-(tetrahydro-2H-pyran-4-yl)propanamide], the EC50 lay in the range of 1.58 to 15.8 µM.

Regarding `COc1ccc2nc(NC(=O)[C@@H](CC3CCOCC3)n3ccc(S(=O)(=O)C4CCCC4)cc3=O)sc2n1` [Example 58, (R)-2-(4-(cyclopentylsulfonyl)-2-oxopyridin-1(2H)-yl)-N-(5-methoxythiazolo[5,4-b]pyridin-2-yl)-3-(tetrahydro-2H-pyran-4-yl)propanamide], the EC50 is > 15.8 µM. To `COc1ccc2nc(NC(=O)[C@H](CC3CCOCC3)n3ccc(S(=O)(=O)C4CCCC4)cc3=O)sc2n1` [Example 59, (S)-2-(4-(cyclopentylsulfonyl)-2-oxopyridin-1(2H)-yl)-N-(5-methoxythiazolo[5,4-b]pyridin-2-yl)-3-(tetrahydro-2H-pyran-4-yl)propanamide] belongs < 1.58 µM; to `Cc1cc(S(=O)(=O)c2cccs2)cc(=O)n1C(CC1CCCCC1)C(=O)Nc1ncc(Cl)s1` (centres unmarked) [Example 60, N-(5-chlorothiazol-2-yl)-3-cyclohexyl-2-(6-methyl-2-oxo-4-(thiophen-2-ylsulfonyl)pyridin-1(2H)-yl)propanamide], < 1.58 µM. On to `Cc1cc(Br)cc(=O)n1[C@@H](CC1CCCCC1)C(=O)Nc1nccs1` [Example 61, (S)-2-(4-bromo-6-methyl-2-oxopyridin-1(2H)-yl)-3-cyclohexyl-N-(thiazol-2-yl)propanamide], for which the EC50 was > 15.8 µM. For the molecule `COc1ccc2nc(NC(=O)[C@H](CC3CCOCC3)n3c(C)cc(S(=O)(=O)c4ccoc4C)cc3=O)sc2n1` [Example 62, (S)-N-(5-methoxythiazolo[5,4-b]pyridin-2-yl)-2-(6-methyl-4-(2-methylfuran-3-ylsulfonyl)-2-oxopyridin-1(2H)-yl)-3-(tetrahydro-2H-pyran-4-yl)propanamide], the EC50 lay in the range of 1.58 to 15.8 µM. In the case of `COc1ccc2nc(NC(=O)[C@@H](CC3CCOCC3)n3c(C)cc(S(=O)(=O)c4ccoc4C)cc3=O)sc2n1` [Example 63, (R)-N-(5-methoxythiazolo[5,4-b]pyridin-2-yl)-2-(6-methyl-4-(2-methylfuran-3-ylsulfonyl)-2-oxopyridin-1(2H)-yl)-3-(tetrahydro-2H-pyran-4-yl)propanamide] it was > 15.8 µM; in that of `Cc1occc1S(=O)(=O)c1cc(C)n([C@@H](CC2CCOCC2)C(=O)Nc2ncc(Cl)s2)c(=O)c1` [Example 64, (S)-N-(5-chlorothiazol-2-yl)-2-(6-methyl-4-(2-methylfuran-3-ylsulfonyl)-2-oxopyridin-1(2H)-yl)-3-(tetrahydro-2H-pyran-4-yl)propanamide], 1.58 to 15.8 µM.

`Cc1occc1S(=O)(=O)c1cc(C)n([C@H](CC2CCOCC2)C(=O)Nc2ncc(Cl)s2)c(=O)c1` [Example 65, (R)-N-(5-chlorothiazol-2-yl)-2-(6-methyl-4-(2-methylfuran-3-ylsulfonyl)-2-oxopyridin-1(2H)-yl)-3-(tetrahydro-2H-pyran-4-yl)propanamide]: the EC50 was > 15.8 µM. As to `Cn1ccc(NC(=O)C(CC2CCOCC2)n2ccc(S(=O)(=O)C3CC3)cc2=O)n1` (centres unmarked) [Example 66, 2-(4-(cyclopropylsulfonyl)-2-oxopyridin-1(2H)-yl)-N-(1-methyl-1H-pyrazol-3-yl)-3-(tetrahydro-2H-pyran-4-yl)propanamide], the EC50 was > 15.8 µM. In the case of `COc1ccc2nc(NC(=O)C(CC3CCOCC3)n3ccc(S(=O)(=O)CCCO)cc3=O)sc2n1` (centres unmarked) [Example 67, 2-(4-(3-hydroxypropylsulfonyl)-2-oxopyridin-1(2H)-yl)-N-(5-methoxythiazolo[5,4-b]pyridin-2-yl)-3-(tetrahydro-2H-pyran-4-yl)propanamide] it was > 15.8 µM. In the case of `COc1ccc2nc(NC(=O)C(CC3CCCCC3)n3ccc(S(=O)(=O)C4CC4)cc3=O)sc2n1` (centres unmarked) [Example 68, 3-cyclohexyl-2-(4-(cyclopropylsulfonyl)-2-oxopyridin-1(2H)-yl)-N-(5-methoxythiazolo[5,4-b]pyridin-2-yl)propanamide] it was < 1.58 µM.

For the molecule `O=C(Nc1cnccn1)[C@@H](CC1CCOCC1)n1ccc(S(=O)(=O)C2CC2)cc1=O` [Example 69, (R)-2-(4-(cyclopropylsulfonyl)-2-oxopyridin-1(2H)-yl)-N-(pyrazin-2-yl)-3-(tetrahydro-2H-pyran-4-yl)propanamide], the EC50 was > 15.8 µM. In the case of `COc1ccc2nc(NC(=O)[C@@H](CC3CCOCC3)n3ccc(S(=O)(=O)CCCO)cc3=O)sc2n1` [Example 71, (R)-2-(4-(3-hydroxypropylsulfonyl)-2-oxopyridin-1(2H)-yl)-N-(5-methoxythiazolo[5,4-b]pyridin-2-yl)-3-(tetrahydro-2H-pyran-4-yl)propanamide] it was > 15.8 µM. Turning to `COc1ccc2nc(NC(=O)[C@H](CC3CCOCC3)n3ccc(S(=O)(=O)CCCO)cc3=O)sc2n1` [Example 72, (S)-2-(4-(3-hydroxypropylsulfonyl)-2-oxopyridin-1(2H)-yl)-N-(5-methoxythiazolo[5,4-b]pyridin-2-yl)-3-(tetrahydro-2H-pyran-4-yl)propanamide], the EC50 was 1.58 to 15.8 µM.

Turning to `Cn1ccc(NC(=O)[C@@H](CC2CCOCC2)n2ccc(S(=O)(=O)C3CC3)cc2=O)n1` [Example 73, (R)-2-(4-(cyclopropylsulfonyl)-2-oxopyridin-1(2H)-yl)-N-(1-methyl-1H-pyrazol-3-yl)-3-(tetrahydro-2H-pyran-4-yl)propanamide], the EC50 was > 15.8 µM.
